Read-outs that look alike come from different tables or passages of the source.

One data set deals with rabbit. Description: Draize method, ocular irritation. The data set is classed as in vivo. To be noted: for Draize score Ocular irritation: Table 1, Conc. of test substance 0.5%; for Actual evaluation: Table 3, Draize ocular irritation score used for the regression; for Found value: Table 4, measurements according to the Draize method. An excerpt:
The assay and evaluation as to whether or not a foreign substance gives harmful irritation to a living body which induces vital reactions, for example, inflammation, hemolysis, opacification, and swelling, are essential in the product development in the technical fields of cosmetics, medicines, and other medical materials and oleo chemicals where a particular substance is directly applied to the living body At the present time, experimental animals are mainly used for these assay and evaluation. In the tests, particularly in irritation tests, use is made of a skin irritation test (primary irritation and accumulating irritation), an ocular irritation test, a patch test, and a mucous membrane irritation test (tunica mucosa oris and urogenital mucosa membrane). For example, in the ocular irritation test, the Draize method, which uses a rabbit, is generally adopted. In this method, the ocular irritation by a test substance is assayed particularly through (1) the determination of the degree of clouding of the cornea, (2) the evaluation of the incidence of congestion or edema of the conjunctiva, and (3) the evaluation of the incidence of congestion or swelling of the iris.
The same test substance as that used above was subjected to a test according to the Draize method.

Data set [1] can be described thus: Estimate of Draize score by regression of HDR values (Example 3). To be noted: Draize score estimated by 17.61 + 0.624 1% HDR + 0.481 0.016% HDR. An excerpt: The results thus obtained were subjected to regression using the following associative equation to obtain the above-described correlation coefficient. 17.61 + 0.624 1% HDR + 0.481 0.016% HDR [formula] Consequently, a very good correspondence was observed even with evaluation by a plurality of concentrations.

A short description of data set [2]: Estimate of Draize score by regression of RBC and HDR values (Example 4). To be noted: estimated value based on the Draize method using the associative equation with RBC, 2% HDR, 0.25% HDR, 0.063% HDR. From the text: • Method 1: The procedure as described in Example 1 was repeated. • Method 2: The procedure as described in Example 2 was repeated.
The results obtained from the two methods were subjected to regression using the associative equation below: […]
Here, the calculated values are estimated values based on the Draize method using the above-described associative equation, and the found values are measurements according to the Draize method.

[3] abbreviates: Table 1, Conc. of test substance 0.5%.

For `CCCCCCCCCCCCCCCC[n+]1ccccc1` [Cetyl pyridinium chloride], in the data set with rabbit, the “Draize score Ocular irritation” value is listed as 70, the Actual evaluation is listed as 70.000 and the Found value turned out to be 35. Besides, under “in vivo”, the “Draize score Primary ocular irritation” value came to 4.0 and the “Draize score Primary skin irritation” value is given as 4.0.

With `CCCCCCCCCCCCOS(=O)(=O)[O-].[Na+]` [SDS, sodium dodecylsulfate], in the data set on rabbit, the “Draize score Ocular irritation” value is 35.1, the Actual evaluation was determined as 35.100 and the Found value came out at 70. For the same compound, the Estimated value in data set [1] is 43.331. Also, the Calculated value in data set [2] is on record as 70.5078. The “Draize score Primary ocular irritation” value under setting [3] came out at 6.9.

For `CCCCCCCCOc1ccccc1` [Octyl phenyl ether], in the data set with rabbit, the “Draize score Ocular irritation” value came to 8.7, the Actual evaluation is recorded as 3.700 and the Found value is recorded as 8.7. Further, in data set [1], the Estimated value was 17.610. For the same compound, the Calculated value in data set [2] is recorded as 6.9685. Besides, the “Draize score Primary ocular irritation” value under setting [3] was found to be 0.2.

The values are drawn from patent publication EP0600087A1, “METHOD AND KIT OF IN VITRO IRRITATION TEST” (priority 1991, dated 1993).
